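Exposure lasted 48 hours, with cells grown in 96-well plates and compounds tested at five concentrations. The concentration for 50% growth inhibition is given as GI50. Definition used: TGI = concentration required for complete inhibition of growth.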
Legend:
Assay in all cases: NCI tumour cell line growth inhibition, 48 h
786-0 renal = system: 786-0 renal
A498 renal = system: A498 renal
A549 NSCLC = system: A549 NSCLC
ACHN renal = system: ACHN renal
BT-549 breast = system: BT-549 breast
CAKI-1 renal = system: CAKI-1 renal
CCRF-CEM leukemia = system: CCRF-CEM leukemia
COLO 205 colon = system: COLO 205 colon
DU-145 prostate = system: DU-145 prostate
EKVX NSCLC = system: EKVX NSCLC
HCC-2998 colon = system: HCC-2998 colon
HCT-116 colon = system: HCT-116 colon
HCT-15 colon = system: HCT-15 colon
HL-60(TB) leukemia = system: HL-60(TB) leukemia
HOP-62 NSCLC = system: HOP-62 NSCLC
HOP-92 NSCLC = system: HOP-92 NSCLC
HS 578T breast = system: HS 578T breast
HT29 colon = system: HT29 colon
IGROV1 ovarian = system: IGROV1 ovarian
K-562 leukemia = system: K-562 leukemia
KM12 colon = system: KM12 colon
MCF7 breast = system: MCF7 breast
MDA-MB-231 breast = system: MDA-MB-231 breast
MDA-MB-435 = system: MDA-MB-435
MOLT-4 leukemia = system: MOLT-4 leukemia
NCI-H226 lung = system: NCI-H226 lung
NCI-H460 lung = system: NCI-H460 lung
NCI/ADR-RES ovarian = system: NCI/ADR-RES ovarian
OVCAR-3 ovarian = system: OVCAR-3 ovarian
OVCAR-4 ovarian = system: OVCAR-4 ovarian
OVCAR-5 ovarian = system: OVCAR-5 ovarian
OVCAR-8 ovarian = system: OVCAR-8 ovarian
PC-3 prostate = system: PC-3 prostate
RPMI-8226 leukemia = system: RPMI-8226 leukemia
RXF 393 renal = system: RXF 393 renal
SF-268 CNS = system: SF-268 CNS
SF-295 CNS = system: SF-295 CNS
SF-539 CNS = system: SF-539 CNS
SK-MEL-2 melanoma = system: SK-MEL-2 melanoma
SK-MEL-28 melanoma = system: SK-MEL-28 melanoma
SK-OV-3 ovarian = system: SK-OV-3 ovarian
SNB-19 CNS = system: SNB-19 CNS
SNB-75 CNS = system: SNB-75 CNS
SR leukemia = system: SR leukemia
T-47D breast = system: T-47D breast
TK-10 renal = system: TK-10 renal
U251 CNS = system: U251 CNS
UACC-257 melanoma = system: UACC-257 melanoma
UACC-62 melanoma = system: UACC-62 melanoma
UO-31 renal = system: UO-31 renal

With `Fc1ccc(-c2cc3nc(C(Cl)Cl)nc(-c4ccccc4)n3n2)cc1` the GI50 (786-0 renal) was 6330 nM, the TGI (786-0 renal) was over 100000 nM and the GI50 (A498 renal) was 1810 nM. For the same compound, the TGI (A498 renal) was 3550 nM, the GI50 (A549 NSCLC) was 1100 nM and the TGI (A549 NSCLC) was 2600 nM. For the same compound, the GI50 (ACHN renal) was 777 nM, the TGI (ACHN renal) was 3020 nM and the GI50 (BT-549 breast) was 5440 nM. For the same compound, the TGI (BT-549 breast) was over 100000 nM, the GI50 (CAKI-1 renal) was 1820 nM and the TGI (CAKI-1 renal) was 6200 nM. The GI50 (CCRF-CEM leukemia) was 6500 nM, the TGI (CCRF-CEM leukemia) was over 100000 nM and the GI50 (COLO 205 colon) was 1150 nM. It also gave a TGI (COLO 205 colon) of 2500 nM, a GI50 (DU-145 prostate) of 411 nM and a TGI (DU-145 prostate) of 2330 nM. The GI50 (EKVX NSCLC) was 2040 nM, the TGI (EKVX NSCLC) was 5580 nM and the GI50 (HCC-2998 colon) was 1180 nM. The TGI (HCC-2998 colon) was 2550 nM, the GI50 (HCT-116 colon) was 1680 nM and the TGI (HCT-116 colon) was 4840 nM. For the same compound, the GI50 (HCT-15 colon) was 1350 nM, the TGI (HCT-15 colon) was 6430 nM and the GI50 (HL-60(TB) leukemia) was 507 nM. For the same compound, the TGI (HL-60(TB) leukemia) was 74600 nM, the GI50 (HOP-62 NSCLC) was 1480 nM and the TGI (HOP-62 NSCLC) was 3720 nM. The GI50 (HOP-92 NSCLC) was 1900 nM, the TGI (HOP-92 NSCLC) was 4810 nM and the GI50 (HS 578T breast) was 3010 nM. It also gave a TGI (HS 578T breast) of 9190 nM, a GI50 (HT29 colon) of 737 nM and a TGI (HT29 colon) of 2670 nM. For the same compound, the GI50 (IGROV1 ovarian) was 4080 nM, the TGI (IGROV1 ovarian) was over 100000 nM and the GI50 (K-562 leukemia) was 2580 nM. It also gave a TGI (K-562 leukemia) of over 100000 nM, a GI50 (KM12 colon) of 1590 nM and a TGI (KM12 colon) of 4720 nM. The GI50 (MCF7 breast) was 673 nM, the TGI (MCF7 breast) was 7370 nM and the GI50 (MDA-MB-231 breast) was 1760 nM. For the same compound, the TGI (MDA-MB-231 breast) was 5760 nM, the GI50 (MDA-MB-435) was 1810 nM and the TGI (MDA-MB-435) was 3770 nM. The GI50 (MOLT-4 leukemia) was 3180 nM, the TGI (MOLT-4 leukemia) was over 100000 nM and the GI50 (NCI-H226 lung) was over 100000 nM. For the same compound, the TGI (NCI-H226 lung) was over 100000 nM, the GI50 (NCI-H460 lung) was 513 nM and the TGI (NCI-H460 lung) was 2070 nM. It also gave a GI50 (NCI/ADR-RES ovarian) of 1430 nM, a TGI (NCI/ADR-RES ovarian) of 6210 nM and a GI50 (OVCAR-3 ovarian) of 1530 nM. For the same compound, the TGI (OVCAR-3 ovarian) was 3100 nM, the GI50 (OVCAR-4 ovarian) was 2150 nM and the TGI (OVCAR-4 ovarian) was 7320 nM. It also gave a GI50 (OVCAR-5 ovarian) of 2290 nM, a TGI (OVCAR-5 ovarian) of 6770 nM and a GI50 (OVCAR-8 ovarian) of 1410 nM. For the same compound, the TGI (OVCAR-8 ovarian) was 3870 nM, the GI50 (PC-3 prostate) was 1750 nM and the TGI (PC-3 prostate) was 4390 nM. The GI50 (RPMI-8226 leukemia) was 2200 nM, the TGI (RPMI-8226 leukemia) was 10000 nM and the GI50 (RXF 393 renal) was 1210 nM. For the same compound, the TGI (RXF 393 renal) was 2550 nM, the GI50 (SF-268 CNS) was 1810 nM and the TGI (SF-268 CNS) was 5210 nM. The GI50 (SF-295 CNS) was 2210 nM, the TGI (SF-295 CNS) was 5630 nM and the GI50 (SF-539 CNS) was 1970 nM. It also gave a TGI (SF-539 CNS) of 5120 nM, a GI50 (SK-MEL-2 melanoma) of 4460 nM and a TGI (SK-MEL-2 melanoma) of over 100000 nM. The GI50 (SK-MEL-28 melanoma) was 2010 nM, the TGI (SK-MEL-28 melanoma) was 3810 nM and the GI50 (SK-OV-3 ovarian) was 2190 nM. For the same compound, the TGI (SK-OV-3 ovarian) was 5130 nM, the GI50 (SNB-19 CNS) was 1580 nM and the TGI (SNB-19 CNS) was 6600 nM. For the same compound, the GI50 (SNB-75 CNS) was 7550 nM, the TGI (SNB-75 CNS) was over 100000 nM and the GI50 (SR leukemia) was 2170 nM. For the same compound, the TGI (SR leukemia) was over 100000 nM, the GI50 (T-47D breast) was 1860 nM and the TGI (T-47D breast) was 5990 nM. For the same compound, the GI50 (TK-10 renal) was 2130 nM, the TGI (TK-10 renal) was 5260 nM and the GI50 (U251 CNS) was 984 nM. For the same compound, the TGI (U251 CNS) was 2590 nM, the GI50 (UACC-257 melanoma) was 2110 nM and the TGI (UACC-257 melanoma) was 4230 nM. For the same compound, the GI50 (UACC-62 melanoma) was 2470 nM, the TGI (UACC-62 melanoma) was 8120 nM and the GI50 (UO-31 renal) was 1730 nM. The TGI (UO-31 renal) was 4200 nM.

— PubChem BioAssay (NCI)
